Experimental data from US4294838A, “Certain heterocyclic sulfoximide derivatives” (priority 1977, dated 1981).
Values after ≈ are worked out from the molar mass of the structure shown. Read-outs that look alike come from different tables or passages of the source.

What was measured:
[1] = test system: ileum preparations, barium chloride spasm; assay: Spasmolytic activity on isolated ileum (Magnus), barium chloride spasm; design: species or system Guinea pigs; conditions: Cavia porcellus, guinea pig ileum, 37° C, barium chloride 4×10^-4 g/ml; for IC50: read-out: ED50 Barium-Chloride (spasmolytic)
Procedure: (§1) The method described by Magnus was employed [Therap. Grundlagen der Experimentellen Arzneimittelforschung, Wiss. Verlagsgesellschaft, Stuttgart (1965) page 241].
(§2) Guinea pigs of both sexes weighing between 200 and 500 g were killed by cervical blow. After that they were allowed to bleed and then laparotomized. About 15 cm of the distal ileum were then placed into a Krebs-Henseleit-solution at 37° C.
(§3) Ileum preparations of about 1 cm length were fixed in a special vessel containing 25 ml of the Krebs-Henseleit-solution which were percolated by a gas mixture (Carbogen) consisting of 95% oxygen and 5% carbon dioxide. The temperature of the bath was maintained at 37° C. The movements of the ileum preparations were observed by a lampblack-kymograph.
(§4) Every 10 minutes single spasms were caused with solutions of acetylcholine (4×10^-7 g/ml) barium chloride (4×10^-4 g/ml) and histamine (8×10^-6 g/ml) in the Krebs-Henseleit-solution. Five minutes after application the spasms were stopped by rinsing the ileum segments with a Krebs-Henseleit-solution which was free of spasmodics. The tested compounds were added to ther Krebs-Henseleit-solution 2 minutes after causing the spasms.

[2] = Acute toxicity in mice (LD50, Litchfield and Wilcoxon); conditions: mouse, in vivo, male NRMI mice
Procedure: The acute toxicity has been determined in male mice (NRMI strain) weighing 17 to 21 g. The animals were fasted 24 hours prior to the trial. Water was offered ad libidum. The substances were administered subcutaneously and by using a gastric tube in increasing doses to groups consisting of 6 animals. The animals were observed over a period of 24 hours. The LD50 values were determined according to the method of Litchfield and Wilcoxon (Therap. Grundlagen der experimentellen Arzneimittelforschung--Ther. Fundamentals of Experimental Durg Research--1965--page 82). The findings were compiled as average values in the following tables: […]

[3] = test system: ileum preparations, histamine spasm; assay: Spasmolytic activity on isolated ileum (Magnus), histamine spasm; design: species or system Guinea pigs; conditions: Cavia porcellus, guinea pig ileum, 37° C, histamine 8×10^-6 g/ml; for IC50: read-out: ED50 Histamine (spasmolytic)
Procedure: as §1, §2, §3, §4

[4] = test system: ileum preparations, acetylcholine spasm; assay: Spasmolytic activity on isolated ileum (Magnus), acetylcholine spasm; design: species or system Guinea pigs; conditions: Cavia porcellus, guinea pig ileum, 37° C, acetylcholine 4×10^-7 g/ml; for IC50: read-out: ED50 Acetylcholine (spasmolytic)
Procedure: as §1, §2, §3, §4

[5] = test system: histamine-spasm (bronchospasm); assay: Bronchospasmolytic activity (Konzett and Roessler), histamine-spasm; assay type: in vivo, guinea pigs; conditions: Cavia porcellus, iv, 2 min; guinea pig, i.v., 2 min before histamine
Procedure: (§5) The method described by Konzett and Roessler was employed (Arch.exp.Path.Pharmak. 195, 72 (1940).
(§6) Experimental animals were guinea pigs weighing between 280 and 380 g. The animals were kept under urethane narcosis (1.5 g/kg i.m.) and their chests opened. The animals received artificial respiration by means of a respiratory pump. The respiratory pressure was adjusted by a mercury manometer. Every 4 minutes a bronchospasm was caused by intravenous application (vena jugularis) of spasmodics. These were acetylcholine and histamine. Two minutes prior to the injection of a spasmodic, the substances under investigation were administered, i.e. again by intravenous injection. […] With respect to the histamine-spasm they were active in the range of […].

[6] = test system: acetylcholine-spasm (bronchospasm); assay: Bronchospasmolytic activity (Konzett and Roessler), acetylcholine-spasm; assay type: in vivo, guinea pigs; conditions: Cavia porcellus, iv, 2 min; guinea pig, i.v., 2 min before acetylcholine; read-out: ED100 Acetyl-choline (bronchospasmolytic)
Procedure: as §5, §6

[7] = po, w.i.g. (gastric tube), read-out: Acute Toxicity LD50, w.i.g.
[8] = sc, subcutaneous, read-out: Acute Toxicity LD50, S.C.

SMILES | IC50 [1] [µg/mL] | LD50 at 24 h [2, 7] [mg/kg] | LD50 at 24 h [2, 8] [mg/kg] | IC50 [3] [µg/mL] | IC50 [4] [µg/mL] | ED100 [5] [mg/kg] | ED100 [6] [mg/kg] | IC100 ([1]; (ED100)) [µg/mL] | IC100 ([3]; (ED100)) [µg/mL] | IC100 ([4]; (ED100)) [µg/mL]
CCN(CC)CCN=S(=O)(c1ccccc1)c1cccs1 (stereo not drawn) [Example 1, N-(2-Diethylaminoethyl)-S-phenyl-S-(2-thienyl)-sulphoximide] | 80 (≈ 248 µM) | 200 | 150 | 5 (≈ 15.5 µM) | 1 (≈ 3.1 µM) | > 4 | 1 |  |  | 
C[N+](C)(C)CCCN=S(=O)(c1ccccc1)c1cccs1 (stereo not drawn) [Example 2, N-(3-trimethylammoniumpropyl)-S-phenyl-S-(2-thienyl)-sulphoximide iodide] |  | > 400 | 300 |  | 5 |  |  |  |  | 
CN(C)CCCN=S(=O)(c1ccccc1)c1cccs1 (centres unmarked) [Example 2] | > 10 | < 800 | 600 | 50 (≈ 162 µM) | > 1 |  |  |  |  | 
O=S(=NCCN1CCCC1)(c1ccccc1)c1cccs1 (stereo not drawn) [Example 3, N-(2-Pyrrolidinoethyl)-S-phenyl-S-(2-thienyl)-sulphoximide] |  | 150 |  | 5 (≈ 15.6 µM) | > 1 |  |  |  |  | 
CCN(CC)CCN=S(=O)(c1ccccc1)c1ccsc1 (stereo not drawn) [Example 4, N-(2-Diethylaminoethyl)-S-phenyl-S-(3-thienyl)-sulphoximide] | 40 (≈ 124 µM) | 200 | 150 | 10 (≈ 31 µM) | 1 (≈ 3.1 µM) | > 8 | > 2 |  |  | 
CCN(CC)CCN=S(=O)(c1cccs1)c1cccs1 [Example 5, N-(2-Diethylaminoethyl)-S,S-bis-(2-thienyl)-sulphoximide] | 40 (≈ 122 µM) | 250 | 100 | 10 (≈ 30.4 µM) | 1 (≈ 3.04 µM) | > 8 | 2 |  |  | 
O=S(=NCCN1CCCCC1)(c1cccs1)c1cccs1 [Example 6, N-(2-Piperidinoethyl)-S,S-bis-(2-thienyl)-sulphoximide] | 80 (≈ 235 µM) | 200 |  | 10 (≈ 29.4 µM) | 5 (≈ 14.7 µM) |  |  |  |  | 
O=S(=NCCN1CCOCC1)(c1cccs1)c1cccs1 [Example 7, N-(2-Morpholinoethyl)-S,S-bis-(2-thienyl)-sulphoximide] |  | 1000 |  | 40 (≈ 117 µM) | 4 (≈ 11.7 µM) |  |  |  |  | 
CCN(CC)CCN=S(=O)(c1ccsc1)c1cccs1 (stereo not drawn) [Example 8, N-(2-Diethylaminoethyl)-S-(2-thienyl)-S-(3-thienyl)-sulphoximide] | 80 (≈ 244 µM) | < 300 | 250 | 2 (≈ 6.09 µM) | 0.5 (≈ 1.52 µM) | 4 | 2 |  |  | 
CCN(CC)CCN=S(=O)(c1ccsc1)c1ccsc1 [Example 9, N-(2-Diethylaminoethyl)-S,S-bis-(3-thienyl)-sulphoximide] |  | > 30 | 30 | 10 (≈ 30.4 µM) | 0.25 (≈ 0.761 µM) | > 8 | 4 |  |  | 
CCN(CC)CCN=S(=O)(c1ccccc1)c1ccco1 (stereo not drawn) [Example 10, N-(2-Diethylaminoethyl)-S-(2-furyl)-S-phenyl-sulphoximide] |  | 400 | 150 |  |  |  |  |  |  | 
CCN(CC)CCN=S(=O)(c1ccccc1)c1cccnc1 (stereo not drawn) [Example 12, N-(2-Diethylaminoethyl)-S-phenyl-S-(3-pyridyl)-sulphoximide] |  | 1600 |  |  |  |  |  |  |  | 
CCN(CC)CCN=S(=O)(c1ccccc1)c1ccccc1 [Sulfoxifen-Phosphate, N(2-Diethylaminoethyl)-diphenyl-sulfoximin, reference compound] | 40 (≈ 126 µM) | 180 | 175 | 1 (≈ 3.16 µM) | 0.1 (≈ 0.316 µM) | 4 | 4 | 80 | 10 | 1
